From ChEMBL document CHEMBL1201862, “PubChem BioAssay data set” (2004)
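Briefly, cells in 96-well plates were exposed to five compound concentrations for 48 h, and endpoints were estimated by linear interpolation. GI50: concentration for 50% inhibition of growth.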 Active and inactive are the calls of the source. Rule as the data show it: active = GI50 up to about 1.1 µM and inactive = higher.

Columns and labels:
Test in all cases: NCI-60 cell line screen, 48 h
COLO 205 = system: COLO 205
HCC 2998 = system: HCC 2998
HCT-116 = system: HCT-116
HOP-92 = system: HOP-92
HT-29 = system: HT-29
M14 = system: M14
Malme-3M = system: Malme-3M
SF-539 = system: SF-539
SK-OV-3 = system: SK-OV-3
SNB-19 = system: SNB-19
SW-620 = system: SW-620
UACC-62 = system: UACC-62
UO-31 = system: UO-31
CCRF-CEM = system: CCRF-CEM

Measured: GI50

O=C(O)CCCc1cc2c(s1)-c1cccc3cccc-2c13
inactive: COLO 205 20.3 µM | HCC 2998 24.3 µM | HCT-116 34.8 µM | HOP-92 17.7 µM | HT-29 > 100 µM | M14 50.1 µM | Malme-3M 28.9 µM | SF-539 45.3 µM | SK-OV-3 19.8 µM | SNB-19 27.4 µM | SW-620 36.2 µM | UACC-62 21.3 µM | UO-31 17 µM

Cc1cc(O)nc(NNC(C#N)c2cccc([N+](=O)[O-])c2)n1 (configuration not stated)
inactive: CCRF-CEM > 100 µM | COLO 205 > 100 µM | HCT-116 > 100 µM | HOP-92 > 100 µM | HT-29 > 100 µM | M14 > 100 µM | Malme-3M > 100 µM | SF-539 > 100 µM | SK-OV-3 > 100 µM | SW-620 > 100 µM | UACC-62 > 100 µM | UO-31 73.1 µM

Cc1ccc(CC(C)N)cc1 (configuration not stated)
inactive: CCRF-CEM > 100 µM | COLO 205 > 100 µM | HCC 2998 > 100 µM | HCT-116 > 100 µM | HOP-92 > 100 µM | HT-29 > 100 µM | M14 > 100 µM | Malme-3M > 100 µM | SF-539 > 100 µM | SK-OV-3 > 100 µM | SNB-19 > 100 µM | SW-620 > 100 µM | UACC-62 > 100 µM | UO-31 > 100 µM

CC(C)(c1ccc(Oc2ccc(C#N)c(C#N)c2)cc1)c1ccc(Oc2ccc(C#N)c(C#N)c2)cc1
inactive: CCRF-CEM > 10 µM | COLO 205 > 10 µM | HCC 2998 > 10 µM | HCT-116 > 10 µM | HOP-92 > 10 µM | HT-29 > 10 µM | M14 > 10 µM | Malme-3M > 10 µM | SF-539 > 10 µM | SK-OV-3 > 10 µM | SNB-19 > 10 µM | SW-620 > 100 µM | UACC-62 > 10 µM | UO-31 3.58 µM

O=C1C=C(Nc2cc(Cl)ccc2Cl)c2ccccc2C1=O
inactive: COLO 205 36.1 µM | HCC 2998 27.5 µM | HCT-116 34.1 µM | HOP-92 20.4 µM | HT-29 86.9 µM | M14 19.9 µM | Malme-3M 19.4 µM | SF-539 33.3 µM | SK-OV-3 51.6 µM | SNB-19 46.2 µM | SW-620 29.3 µM | UACC-62 16.9 µM | UO-31 23.9 µM

CC/C(CC(=O)CCC(=O)Nc1ccccc1[N+](=O)[O-])=N/NC(=O)C[n+]1ccccc1
inactive: CCRF-CEM > 100 µM | COLO 205 > 100 µM | HCC 2998 > 100 µM | HCT-116 > 100 µM | HOP-92 > 100 µM | HT-29 > 100 µM | M14 > 100 µM | Malme-3M > 100 µM | SF-539 > 100 µM | SK-OV-3 > 100 µM | SNB-19 > 100 µM | SW-620 > 100 µM | UACC-62 > 100 µM | UO-31 > 100 µM

CN(Cc1ccccc1)C1(N(C)Cc2ccccc2)CC1
inactive: CCRF-CEM > 100 µM | COLO 205 > 100 µM | HCC 2998 > 100 µM | HCT-116 > 100 µM | HOP-92 > 100 µM | HT-29 > 100 µM | M14 > 100 µM | Malme-3M > 100 µM | SF-539 > 100 µM | SK-OV-3 > 100 µM | SNB-19 > 100 µM | SW-620 > 100 µM | UACC-62 > 100 µM | UO-31 > 100 µM

COC12C=CC(CC1)c1c(O)ccc(O)c12 (configuration not stated)
inactive: CCRF-CEM 20.6 µM | COLO 205 22.6 µM | HCC 2998 99.3 µM | HCT-116 40.7 µM | HT-29 64.9 µM | M14 57.7 µM | Malme-3M > 51.5 µM | SF-539 > 100 µM | SK-OV-3 > 100 µM | SNB-19 > 70.6 µM | SW-620 27.5 µM | UACC-62 27.3 µM | UO-31 > 80.7 µM

CCOC1c2cc(C(C)C)c(O)c(O)c2[C@@]23CCCC(C)(C)C2C1OC3=O (some centres not stated)
inactive: CCRF-CEM 47.4 µM | COLO 205 > 100 µM | HCC 2998 > 100 µM | HCT-116 > 100 µM | HT-29 > 100 µM | M14 > 100 µM | Malme-3M > 100 µM | SF-539 > 100 µM | SK-OV-3 > 100 µM | SNB-19 > 100 µM | SW-620 > 100 µM | UACC-62 83.2 µM | UO-31 35.8 µM

C/C(=C(/C)c1cc[n+](C)cc1)c1cc[n+](C)cc1
inactive: CCRF-CEM > 75 µM | COLO 205 27.2 µM | HCT-116 > 75 µM | HOP-92 > 75 µM | HT-29 > 75 µM | M14 > 75 µM | Malme-3M > 75 µM | SF-539 > 75 µM | SK-OV-3 > 75 µM | SNB-19 > 75 µM | UACC-62 > 75 µM | UO-31 > 75 µM
